Measurements published in patent US20260194528A1, “PROXIMITY-BASED LABELING OF BIOMOLECULAR CONDENSATE MICROENVIRONMENTS” (THE TRUSTEES OF PRINCETON UNIVERSITY, priority 2022, published 2026).

Key:
Format in all cases: cell-based
HECT E3 ligase = assay: effect of HECT E3 ligase inhibition or knockdown on stress granule disassembly; conditions: HECT E3 ligase inhibition or siRNA knockdown; FIG. 10, FIG. 11
Source text: With this information provided by the interactome mapping, E3 ligase inhibitor Heclin was employed to determine any effects on HECT E3 ligase function relative to stress granule disassembly, as illustrated in FIG. 9.

stress granule proteins = assay: ubiquitination of stress granule proteins during granule formation; conditions: HEK243T stably expressing HaloTag-G3BP1, 2 μM TAK243, FIG. 6
Procedure: (§1) A protein-transition metal complex composite of FIG. 2 was prepared as follows. Cells (HEK243T stably expressing HaloTag-G3BP1) were seeded and grown to 95% confluency prior to labeling. The cells were incubated in DMEM media containing 5 μM of the with iridium catalyst of FIG. 2 for one hour. During this period, the iridium catalyst passes through the cell membranes and conjugates with the HaloTag-G3BP1 protein. The cells were then incubated in fresh DMEM media for one hour to remove or minimize noise from any unbound iridium catalyst.
(§2) A first portion of the Ir-catalyst loaded cells were subsequently transferred to DMEM media pre-dosed with 2 μM TAK243 and incubated for another hour. The remaining second portion (control) was dosed with the same volume of DMSO. The cells were stressed with […] NaAsO2 in DMEM for 30 minutes. Following stressing, the media was replaced with fresh DMEM for cell recovery at the indicated time. During the stressing period, the cells were dosed with protein labeling agent of 500 μM biotin-diazirine in the media 30 minutes prior to the individual time point of photolabeling. During photolabeling, the cells were subjected to 10 minutes of 450 nm blue light irradiation. FIG. 4 illustrates the foregoing testing protocol.
General proteomics preparation protocol was followed. 600 μg of total protein was loaded for streptavidin enrichment. […]

stress granules = assay: stress granule disassembly after NaAsO2 stress; conditions: HEK243T stably expressing HaloTag-G3BP1; 2 μM TAK243; stressed with 500 mM NaAsO2 for 30 minutes; FIG. 6
Procedure: as §1, §2

Row | stress granule disassembly (HECT E3 ligase) | SMILES | protein ubiquitination (stress granule proteins) | granule disassembly (stress granules)
1 | delays stress granule disassembly | CCc1ccc(C=CC(=O)Nc2ccc(C(C)=O)cc2)o1 [Heclin] |  | 
2 |  | NS(=O)(=O)OC[C@H]1C[C@@H](Nc2ccnc3cc(-c4cccc(SC(F)(F)F)c4)nn23)[C@H](O)[C@@H]1O [TAK243] | undermined or inhibited | delayed
